Assay results as given in US20120034613A1, “Apparatus and Method for Testing Relationships Between Gene Expression and Physical Appearance of Skin” (NSE Products, Inc., priority 2010, published 2012).

Tested on: EpidermFT™ Skin Model (EFT-400) full thickness skin cultures
Test: Affymetrix GeneChip HG U133 Plus 2.0 microarray global gene expression, agent-exposed vs untreated skin cultures
Format: cell-based, human
Conditions: 0.5% vs untreated, 24 hr; down

SMILES: OCc1ccccc1O[C@@H]1O[C@H](CO)[C@@H](O)[C@H](O)[C@H]1O [Salicin, 2-(Hydroxymethyl)phenyl β-D-glucospyranoside]
- Fold change HAS3 (223541_at): 3.713
- Fold change HIP1R (209558_s_at): 3.322
- Fold change HMGCR (202539_s_at): 3.621
- Fold change HMGCR (202540_s_at): 3.753
- Fold change HMOX1 (203665_at): 3.193
- Fold change HOMER2 (217080_s_at): 3.789
- Fold change HOOK1 (219976_at): 3.54
- Fold change HS3ST6 (239547_at): 3.557
- Fold change HSD17B1 (205829_at): 3.15
- Fold change HYAL4 (220249_at): 3.117
- Fold change IL1F5 (222223_s_at): 3.177
- Fold change IL28RA (244261_at): 3.252
- Fold change IRX3 (229638_at): 3.118
- Fold change ITGAM (205786_s_at): 3.645
- Fold change JUB (225806_at): 3.698
- Fold change JUB (225807_at): 3.198
- Fold change JUB (1553764_a_at): 3.662
- Fold change KCTD11 (235857_at): 3.157
- Fold change KIAA0485 (214295_at): 3.094
- Fold change KIAA0513 (204546_at): 3.413
- Fold change KIAA0746 /// SERINC2 (212314_at): 3.628
- Fold change KIAA1239 (230765_at): 3.239
- Fold change KIAA1609 (65438_at): 3.527
- Fold change KIAA1609 (221843_s_at): 3.461
- Fold change KIF21A (226003_at): 3.77
- Fold change KIF21A (231875_at): 3.78
- Fold change KLF5 (209211_at): 3.563
- Fold change KLHL18 (1557165_s_at): 3.408
- Fold change KLK11 (205470_s_at): 3.318
- Fold change KLK13 (205783_at): 3.619
- Fold change KRT15 (204734_at): 3.6
- Fold change KRT34 (206969_at): 3.171
- Fold change LAD1 (203287_at): 3.072
- Fold change LOC283070 (226382_at): 3.685
- Fold change LOC653602 (229546_at): 3.058
- Fold change LOC728377 (228596_at): 3.786
- Fold change LOC100128178 (232090_at): 3.299
- Fold change LOC100128443 /// MAST4 (225613_at): 3.231
- Fold change LOC100128501 (229296_at): 3.452
- Fold change LOC100130885 (236213_at): 3.36
- Fold change LPCAT2 (227889_at): 3.256
- Fold change LYPLA1 (203007_x_at): 3.221
- Fold change MACC1 (232151_at): 3.738
- Fold change MACC1 (1566766_a_at): 3.181
- Fold change MBD1 (241813_at): 3.076
- Fold change ME1 (204058_at): 3.413
- Fold change ME1 (204059_s_at): 3.029
- Fold change MICALCL (243611_at): 3.335
- Fold change MICALL1 (221779_at): 3.602
- Fold change MKNK2 (223199_at): 3.427
- Fold change MLLT4 (224685_at): 3.09
- Fold change MPP7 (1564308_a_at): 3.034
- Fold change MPZL2 (203780_at): 3.468
- Fold change MPZL2 (230518_at): 3.326
- Fold change MSMB (207430 s_at): 3.689
- Fold change MTUS1 (212095_s_at): 3.034
- Fold change MTUS1 (212096_s_at): 3.773
- Fold change MYO5B (225301_s_at): 3.815
- Fold change NDRG2 (206453_s_at): 3.922
- Fold change NDRG2 (214279_s_at): 3.705
- Fold change NLRX1 (1553695_a_at): 3.887
- Fold change NOL3 (221566_s_at): 3.704
- Fold change NOL3 (221567_at): 3.416
- Fold change NT5C3 (223298_s_at): 3.641
- Fold change OMG (238720_at): 3.099
- Fold change P2RY2 (206277_at): 3.679
- Fold change P11 (206605_at): 3.785
- Fold change PANK1 (226649_at): 3.261
- Fold change PCDH7 (228640_at): 3.307
- Fold change PCSK6 (210553_x_at): 3.573
- Fold change PITX2 (207558_s_at): 3.504
- Fold change PLCXD1 (218951_s_at): 3.092
- Fold change PLLP (204519_s_at): 3.781
- Fold change PLXDC2 (227276_at): 3.44
- Fold change PLXNA2 (213030_s_at): 3.036
- Fold change PNPLA1 (1553364_at): 3.553
- Fold change PPID (228469_at): 3.327
- Fold change PPP1R13L (218849_s_at): 3.053
- Fold change PPP2R2C (223574_x_at): 3.091
- Fold change PSG4 (208191_x_at): 3.458
- Fold change PSPH (205048_s_at): 3.381
- Fold change PTGER3 (210375_at): 3.745
- Fold change PTPN3 (203997_at): 3.799
- Fold change PTPN3 (227944_at): 3.077
- Fold change RAB3D (225001_at): 3.306
- Fold change RAB7B (230266_at): 3.207
- Fold change RAET1E (1552777_a_at): 3.558
- Fold change RASAL1 (219752_at): 3.507
- Fold change RBM35A (219121_s_at): 3.786
- Fold change RDH13 (1559190_s_at): 3.726
- Fold change RHBDL2 (1554895_a_at): 3.193
- Fold change RHOD (209885_at): 3.12
- Fold change RHOU (223168_at): 3.283
- Fold change S1PR5 (230464_at): 3.789
- Fold change S100P (204351_at): 3.66
- Fold change SCD (200832_s_at): 3.77
- Fold change SCD /// SCDOS (223839_s_at): 3.34
- Fold change SCN4B (236359_at): 3.105
- Fold change SDC1 (201287_s_at): 3.32
- Fold change SEPT8 (209000_s_at): 3.657
- Fold change SERPINB3 (209719_x_at): 3.665
- Fold change SERPINB3 (209720_s_at): 3.147
- Fold change SERPINB7 (206421_s_at): 3.623
- Fold change SERPINB12 (1553057_at): 3.711
- Fold change SFT2D2 (214838_at): 3.904
- Fold change SGPL1 (212322_at): 3.184
- Fold change SLC4A11 (223748_at): 3.82
- Fold change SLC5A1 (242773_at): 3.714
- Fold change SLC22A3 (205421_at): 3.516
- Fold change SLC38A1 (224579_at): 3.045
- Fold change SLC38A4 (220786 s_at): 3.844
- Fold change SMPD3 (231732_at): 3.594
- Fold change SORL1 (203509_at): 3.285
- Fold change SPRR3 (232082_x_at): 3.303
